The values that follow come from US8314103B2, “Pyridyl derivatives, their preparation and use” (Piramal Enterprises Limited, priority 2007, dated 2012).

In one series the target is T1, mTOR (Homo sapiens, UniProt P42345).
T1 construct: endogenous in cells
Kind of series: Cell based mTOR assay. As to conditions: IGF-I induced AKT/p70S6K1 phosphorylation; read-out: Inhibition of mTOR (cell-based): IC50. The protocol:
The mTOR assay was designed as given in Biochem J., 2000, 350, 717-722 with modifications as described below.
Cells were seeded in a 96 well microtitre plate at a density of 50,000 cells/cm^2 in appropriate complete cell culture medium. The cells were allowed to adhere for 18-24 hours. The cells were pretreated (in triplicates) with the test compound at a concentration of 10 μM for 30 minutes followed by induction with 400 ng/ml IGF-I for 24 hours (to induce AKT and p70S6K1 phosphorylation). A typical assay would consist of a set of unstimulated well, a set of stimulated and a set each of wells treated with compound and the stimulator. The medium was discarded. The cells were fixed with 100 μl of 3.7% formaldehyde for 15 minutes. The formaldehyde was discarded by inverting the plate and tapping it on a thick tissue paper layer to remove traces. The cells were washed and permeabilized with 200 μL PBS-Triton solution (containing 0.1% triton-X 100 in 1× PBS) three times, incubating the cells each time for 5 minutes. 100 μL blocking solution (10% FCS in PBS-Triton) was added and incubated for 1 hour at room temperature. The blocking solution was discarded and cells were incubated with the primary antibody in PBS-Triton at a dilution of 1:500 for 1 hour at room temperature. [The primary antibody is Phospho-AKT (Ser 473); Cell Signaling; Cat. No. 9271; Phospho p70S6K1 (Thr 389), Cell Signaling, Cat. No. 9205]. The primary antibody solution was discarded and the cells were washed 3 times with PBS-Triton solution and incubated with the HRP-conjugated secondary antibody in PBS-Triton at a dilution of 1:500 for 1 hour at room temperature. The cells were washed 3 times with PBS-Triton followed by two washes with PBS (to remove traces of triton-X 100). The OPD (o-phenylene diamine dihydrochloride) substrate was prepared for detection of the signal by dissolving one tablet set (two tablets) of SigmaFast OPD (Sigma, Cat No. P9187) in 20 mL distilled water, and was protected from light. 100 μL OPD solution was added to the wells and the plate was incubated in the dark for 3-5 minutes (depending upon the development of the colour). The reaction was stopped by adding 50 μL 2 N sulphuric acid (H2SO4). The absorbance was measured at 490 nm. The values were expressed in the treated samples, in terms of percentage or fold decrease in AKT/p70 phosphorylation with respect to the induced sample.

In another series the test system is HIF-1α. The experiment in a line: HIF-1α assay (luciferase reporter gene, U251 HRE / U251 pGL3 cells). The class given is cell-based, human. The note with it: SI greater than 4 indicates specificity towards HIF-1α inhibition under hypoxia conditions. (Reporter assays use an easily measured gene product as a stand-in for the process of interest.)
The subject of series [1] is HIF overexpressing cell lines. Kind of series: Anti-proliferative assay (3H-Thymidine incorporation). The class given is cell-based. The note with it: Homo sapiens; average across a panel of HIF overexpressing cell lines; 48 hours; read-out: Anti Proliferative Potential (3H-Thymidine), average IC50. The protocol:
The anti-proliferative potential of compounds of present invention across a panel of cancer cell lines as described herein above was determined using ^3H-Thymidine incorporation. […] Cells were seeded at a density of 3000-5000 cells per well in 180 μL volume in transparent 96 well tissue culture plate (NUNC, USA) and incubated for 12-18 hours at 37° C., 5% CO2. Subsequently, 20 μL of compounds of present invention (diluted in medium at concentrations ranging from 30 μM, 10 μM, 3 μM, 1 μM, 0.3 μM or 0.1 μM) were added to each well. Cells were then incubated for 48 hours at 37° C., 5% CO2 After the incubation, all the medium from the plates was aspirated and ^3H-Thymidine was added to all wells at a concentration of 0.25 μCi/well in 200 μL it complete medium (RPMI with 10% FBS). Plates were incubated at 37° C., 5% CO2 for further 6-14 hours. Following this incubation period, cells from 96 well plates were harvested with the help of cell harvester (Packard, USA) on a 96 well glass-filter plate (Unifilter-96, GF/B, Packard, USA). The filter plates were dried completely at 60° C. for 1 hour or overnight at room temperature. After drying, the bottom of the plates was sealed with bottom seals and 0.05 mL/well of scintillate fluid was added per well (Microscint-O, Packard). The plates were sealed from the top, read on Scintillation counter (TopCount, Packard) and percent inhibition and IC50 were calculated.

A further series in a line: Cytotoxicity assay (MTS). The note with it: human, panel of HIF over expressing cell lines, average across a panel of HIF overexpressing cell lines, read-out: Cytotoxic Potential (MTS/PI), average IC50. The class given is cell-based. The protocol: Cytotoxicity and Anti-proliferative Assay
Cytotoxic potential of compounds of the present invention was tested using various HIF over expressing cell lines (source and culture conditions as described in Table-1 herein above). Cells were seeded at a density of 3000-5000 cells per well in 180 μL volume in transparent 96 well tissue culture plate (NUNC, USA) and incubated for 12-18 hours at 37° C., 5% CO2. Subsequently, 20 μL of compounds of present invention (diluted in medium at concentrations ranging from 30 μM, 10 μM, 3 μM, 1 μM, 0.3 μM or 0.1 μM) were added to each well. Cells were then incubated for 48 hours at 37° C., 5% CO2. Following the incubation, 20 μL of MTS solution with PMS (Promega) was added in each well. After 4 hours incubation, the absorbance of the fluid in each well was determined at 490 nm using a microwell plate spectrophotometer reader (Molecular Devices, Sunnyvale, Calif., USA). In every experiment, each condition was run in triplicate wells.

Another series concerns the target PI3Kα kinase (Homo sapiens, UniProt P42336). Kind of series: PI3Kα kinase assay. The class given is biochemical. As to conditions: 10 μM ATP; read-out: Inhibition of PI3Kα (kinase): IC50. The protocol: The PI3K kinase assay was designed as given in Cell, 2006, 125, 733-747.
The kinase reaction was carried out in a 25 μL reaction in a 1.5 ml microcentrifuge tube. The reaction mixture consisted of kinase buffer (10 mM Hepes, pH 7.5, 50 mM MgCl2), 20 ng PI3Kα kinase, 12.5 μg phosphotidylinositol (PI), 10 μM adenosine triphosphate (ATP) and 1 μCi 32γP […]. The compounds of the present invention were added at appropriate concentrations. The reactions were incubated at 30° C. for 20 minutes and were stopped by adding 1:1 mixture of methanol and chloroform. The tube contents were mixed on a vortex mixer and centrifuged at 10000 rpm for 2 minutes. 10 μL of the organic (lower) phase was spotted on to a thin layer chromatography (TLC) plate. The spots were resolved in a mobile phase consisting of a 65:35 mixture of n-propanol and 2 M glacial acetic acid. The plates were dried and exposed to an X-ray film. The bands appearing as a result of 32 g P incorporation in PI were quantitated using the QuantityOne (BioRad) densitometry program.

Chain of PI3Kα kinase (P42336 whole entry): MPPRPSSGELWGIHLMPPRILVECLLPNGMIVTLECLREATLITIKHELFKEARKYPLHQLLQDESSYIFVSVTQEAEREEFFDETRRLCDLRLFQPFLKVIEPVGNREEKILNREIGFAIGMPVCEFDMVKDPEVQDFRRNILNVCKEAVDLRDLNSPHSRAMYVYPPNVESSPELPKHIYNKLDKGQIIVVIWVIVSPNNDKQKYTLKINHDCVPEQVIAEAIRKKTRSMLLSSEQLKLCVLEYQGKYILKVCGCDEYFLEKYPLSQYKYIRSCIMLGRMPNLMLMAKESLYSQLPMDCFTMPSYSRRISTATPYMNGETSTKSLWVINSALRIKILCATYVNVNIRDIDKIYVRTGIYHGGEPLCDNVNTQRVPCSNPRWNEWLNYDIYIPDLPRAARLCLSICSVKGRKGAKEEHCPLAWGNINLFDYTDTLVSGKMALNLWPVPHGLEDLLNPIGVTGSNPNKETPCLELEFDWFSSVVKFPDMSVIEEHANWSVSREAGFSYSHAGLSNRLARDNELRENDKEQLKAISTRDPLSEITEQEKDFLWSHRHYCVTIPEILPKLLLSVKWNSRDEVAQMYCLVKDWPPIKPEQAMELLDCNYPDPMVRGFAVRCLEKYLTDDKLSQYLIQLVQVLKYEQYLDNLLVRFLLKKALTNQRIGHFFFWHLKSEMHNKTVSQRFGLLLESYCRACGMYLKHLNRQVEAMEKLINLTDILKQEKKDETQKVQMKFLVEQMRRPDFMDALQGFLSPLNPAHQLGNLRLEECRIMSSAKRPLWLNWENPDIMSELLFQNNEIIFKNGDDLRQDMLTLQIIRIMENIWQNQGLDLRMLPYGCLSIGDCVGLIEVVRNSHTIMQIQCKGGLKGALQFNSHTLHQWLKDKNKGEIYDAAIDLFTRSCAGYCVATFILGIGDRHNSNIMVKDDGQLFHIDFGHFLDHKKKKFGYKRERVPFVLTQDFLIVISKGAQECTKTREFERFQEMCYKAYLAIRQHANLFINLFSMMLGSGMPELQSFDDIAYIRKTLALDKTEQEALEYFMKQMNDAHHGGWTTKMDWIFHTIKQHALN
Chain of PI3Kα kinase (P27986 whole entry partner): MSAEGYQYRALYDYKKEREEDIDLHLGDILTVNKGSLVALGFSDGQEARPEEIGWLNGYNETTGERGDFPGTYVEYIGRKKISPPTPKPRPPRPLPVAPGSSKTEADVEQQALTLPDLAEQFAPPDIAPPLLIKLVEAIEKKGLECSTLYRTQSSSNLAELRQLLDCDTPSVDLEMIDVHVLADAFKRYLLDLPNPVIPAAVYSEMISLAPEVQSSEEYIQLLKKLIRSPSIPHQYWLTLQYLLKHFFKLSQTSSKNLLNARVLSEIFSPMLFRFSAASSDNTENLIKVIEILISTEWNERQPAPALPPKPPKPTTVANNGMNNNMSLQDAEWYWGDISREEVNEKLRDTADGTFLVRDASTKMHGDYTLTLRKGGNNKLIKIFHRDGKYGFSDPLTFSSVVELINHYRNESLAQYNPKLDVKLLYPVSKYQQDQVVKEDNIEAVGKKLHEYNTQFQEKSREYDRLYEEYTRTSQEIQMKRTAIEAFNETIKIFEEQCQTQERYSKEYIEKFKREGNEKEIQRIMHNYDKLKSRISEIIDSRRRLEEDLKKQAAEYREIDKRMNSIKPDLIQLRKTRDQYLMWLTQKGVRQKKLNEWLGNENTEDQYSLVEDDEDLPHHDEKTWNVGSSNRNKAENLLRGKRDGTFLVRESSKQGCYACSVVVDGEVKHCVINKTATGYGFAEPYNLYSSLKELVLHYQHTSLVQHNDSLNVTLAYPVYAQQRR
Source text for HIF-1α: • U251-HRE: Genetically engineered U251 human glioma cells stably expressing a recombinant vector (pGL2-TK-HRE) in which the Luciferase reporter gene was under the control of hypoxia-responsive element and G418 vector. • U251-pGL3: To exclude compounds that can inhibit luciferase expression in non-specific and/or HIF-1 independent fashion a control cell line genetically engineered U251 human glioma cells stably expressing a recombinant vector (pGL3), U251-pGL3 was used.
U251 HRE and U251 pGL3 cells were grown and maintained in RPMI1640 medium supplemented with 5% FBS. Cells were seeded in 96 well plate at a density of 1.5×10^4 cells in 180 μL per well and incubated at 37° C., 5% CO2 overnight. […] The plates were incubated under two sets of conditions which were as follows.
• (<1% oxygen (O2), 5% CO2 and 94% Nitrogen, incubation temp 37° C.) Condition 2: Normoxia • (21% O2, 5% CO2 and 74% Nitrogen, incubation temp 37° C.)
Plates were incubated for 24 hours, thereafter cell were lysed with Lysis Buffer followed by addition of substrate. Plates were read for luminescence on POLARSTAR™ (or TOPCOUNT™).
To identify the specificity of the compounds of present invention to inhibit HIF-1α under hypoxia conditions, Specificity Index (SI) was calculated as follows:
An observed SI of greater than 4 indicates specificity towards HIF-1α inhibition under hypoxia conditions.

In the case of `NC(=NO)c1ccc(NC(=O)CCl)cn1` [Example 4, 2-Chloro-N-(6-(N′-hydroxycarbamimidoyl)pyridin-3-yl)acetamide], the IC50 at mTOR was found to be 5000 nM; in series [1], 2000 ± 500 nM. In addition, the “Specificity Index” value in the series on HIF-1α is over 20. Also, in “Cytotoxicity assay (MTS)”, the IC50 at 48 h turned out to be 2200 ± 300 nM.

As for `O=C(CCl)Nc1ccc(-c2noc(C(F)(F)F)n2)nc1` [Example 29, 2-Chloro-N-[6-(5-(trifluoromethyl)-1,2,4-oxadiazol-3-yl)pyridin-3-yl]acetamide], the “Specificity Index” value in the series with HIF-1α is on record as over 9. For the same molecule, the IC50 in series [1] was 1500 ± 400 nM. Further, in “Cytotoxicity assay (MTS)”, the IC50 at 48 h was found to be 3500 ± 500 nM.

Turning to `Cc1nc(-c2ccc(NC(=O)CCl)cn2)no1` [Example 30, 2-Chloro-N-[6-(5-methyl-1,2,4-oxadiazol-3-yl)pyridin-3-yl]acetamide], the “Specificity Index” value with HIF-1α is listed as over 11. Moreover, in series [1], the IC50 came out at 1500 ± 200 nM. The IC50 at 48 h in the series “Cytotoxicity assay (MTS)” was 3000 ± 500 nM.

In the case of `O=C(CCl)Nc1ccc(-c2noc(C(F)(F)Cl)n2)nc1` [Example 41a, 2-Chloro-N-[6-(5-(chlorodifluoromethyl)-1,2,4-oxadiazol-3-yl)pyridin-3-yl]acetamide], in the series on HIF-1α, the “Specificity Index” value is listed as over 10. Besides, the IC50 at 48 h in “Cytotoxicity assay (MTS)” was determined as 3500 ± 1000 nM.

For the molecule `O=C(CCl)Nc1ccc(-c2nc(O)cc(C(F)(F)F)n2)nc1` [Example 53, 2-Chloro-N-(6-(4-hydroxy-6-(trifluoromethyl)pyrimidin-2-yl)pyridin-3-yl)acetamide], in the series with HIF-1α, the “Specificity Index” value was over 7. In series [1], the IC50 was determined as 2000 ± 300 nM. Besides, the IC50 at 48 h in the series “Cytotoxicity assay (MTS)” is 2000 ± 500 nM.

For `C=CCOc1cc(C(F)(F)F)nc(-c2ccc(NC(=O)CCl)cn2)n1` [Example 60, N-(6-(4-(allyloxy)-6-(trifluoromethyl)pyrimidin-2-yl)pyridin-3yl-)-2-chloroacetamide], the IC50 on mTOR stood at 5000 nM; in series [1], 800 ± 200 nM; on PI3Kα kinase, 1500 nM. Also, the “Specificity Index” value in the series with HIF-1α is given as over 15. Moreover, the IC50 at 48 h in “Cytotoxicity assay (MTS)” worked out at 2000 ± 200 nM.

Consider `COc1cc(C(F)(F)F)nc(-c2ccc(NC(=O)CCl)cn2)n1` [Example 61, 2-Chloro-N-(6-(4-methoxy-6-(trifluoromethyl)pyrimidin-2-yl)pyridin-3yl)acetamide], for which the IC50 at mTOR was 5000 nM; at PI3Kα kinase it was 1000 nM. The IC50 at 48 h in the series “Cytotoxicity assay (MTS)” amounted to 3000 ± 200 nM.

As to `C=CCOc1nc(-c2ccc(NC(=O)CCl)cn2)nc(C)c1CC` [Example 64, N-(6-(4-(allyloxy)-5-ethyl-6-methylpyrimidin-2-yl)pyridin-3yl)-2-chloroacetamide], the IC50 was 5000 nM on mTOR, 1000 ± 200 nM in series [1] and under 1000 nM on PI3Kα kinase. Moreover, the IC50 at 48 h in “Cytotoxicity assay (MTS)” came out at 1500 ± 200 nM.

For `O=C(CCl)Nc1ccc(-c2nc(Cl)cc(C(F)(F)F)n2)nc1` [Example 71, 2-Chloro-N-(6-(4-chloro-6-(trifluoromethyl)pyrimidin-2-yl)pyridin-3-yl)acetamide], in the series with HIF-1α, the “Specificity Index” value is over 6. The IC50 in series [1] turned out to be 800 ± 200 nM. Further, the IC50 at 48 h in the series “Cytotoxicity assay (MTS)” is 1000 ± 200 nM.
